From patent publication US20210267948A1, “TREATMENT OF CANCER” (CITY OF HOPE, priority 2017, published 2021)

Key:
PARP1 = PARP1 protein expression by Western blot; assay type: cell-based, human
Method: FIGS. 3A-3B. […] (FIG. 3A): the effect of COH29 on PARP1 activity in isogenic pairs of breast (HCC1937) and ovarian (UWB1.289) cancer cell lines expressing mutant or wt BRCA1 (wt=+BRCA1 in each case) was assessed in duplicate using procedures described in Materials & Methods; FIG. 3B: the effect of COH29 on PARP1 protein expression in the isogenic HCC1937/HCC1937+BRCA1 cell lines was assessed by Western blot analysis using anti-human PARP1 antibody as the primary antibody. Loading control is β-actin.
For subcellular fractionation, cells were trypsinized and washed with cold PBS solution twice. […] Following centrifugation at 1,000 g for 5 min, the supernatant was collected (i.e., cytoplasmic fraction) and pellets were washed with the same buffer twice. The washed samples were extracted for 40 min on ice with fractionation buffer containing 0.5% NP-40 for nuclear fraction. All the samples were sonicated and clarified by centrifugation at 16,000 g for 15 min. Protein concentrations of all fractions were determined with Bio-Rad Protein Assay (Bio-Rad Laboratories, Hercules, Calif.). Immunoblotting was performed as described previously (21,22). Briefly, equal amounts of boiled protein samples were subjected to SDS-polyacrylamide gel electrophoresis (PAGE) and transferred onto nitrocellulose membranes (Bio-Rad Laboratories). Membranes were blocked for 1 hour in 3% BSA in Tris buffered saline containing 0.05% Tween 20 (TBST) and incubated for 1 hour with primary antibody (1:500 or 1:1000) diluted in TBST containing 1% BSA. After two washes with TBST, membranes were incubated for 1 hour with horseradish peroxidase-conjugated secondary Abs (1:3000 dilution) at room temperature. The immunoblots were visualized on film with the West-Q chemi-luminescence kit (GenDEPOT, Barker, Tex.).

HCC1937+BRCA1 tumors = assay: Orthotopic tumor model, HCC1937+BRCA1; assay type: in vivo, mouse; conditions: HCC1937+BRCA1 in mammary fat pads, NSG mice, daily oral 400 mg/kg, 28 days
Method: Orthotopic Tumor Model. Experiments in mice were conducted under a protocol approved by the IACUC of City of Hope. Because HCC1937 and HCC1937+BRCA1 cells form slow-growing tumors, they were implanted using MATRIGEL™ (Becton-Dickinson Biosciences). To establish tumors, 4×10^6 cells in 200 μL serum-free medium containing 50% MATRIGEL™ were injected into the mammary fat pads around the inguinal area of a pair of 8 week old female NSG mice. Once the initial tumors reached 13 mm in diameter, they were dissected out, minced into 3 mm pieces and implanted into the inguinal area of the mammary fat pads of the experimental mice. Tumors were measured over a 28-day period, and for each time point, the student t-test was used to determine the statistical significance between daily gavage with 400 mg/kg COH29 in 30% solutol and corresponding vehicle control. Thep value less than 0.05 (2 sides) was considered to indicate statistical significance

EJ5 cells (NHEJ pathway) = assay: NHEJ repair GFP reporter (EJ5-GFP); assay type: cell-based; conditions: 24 h
Method: The EJ2 cells were generated to evaluate Alt-NHEJ through monitoring the fluorescence intensity of GFP, and EJ5 cells were used to determine NJEJ, as described previously (23). Cells were seeded into 6-well plate and treated with COH29 or cisplatin at different concentration for 24 hours. The cells were then trypsinized, washed, and analyzed by flow cytometry.

TOV112D xenograft tumors = assay: TOV112D mouse xenograft; assay type: in vivo; conditions: oral 200, 300 or 400 mg/kg, 7 days
Method: FIGS. 12A-12D depict the activity of COH29 in mouse xenografts. Cancer cells were implanted and allowed to grow at the subcutaneous site until the tumor was measurable. Subcutaneous xenograft growth curves for leukemic-(MOLT-4) mice treated for 12 days with oral COH29 in twice-daily dosing at 50 and 100 mg/kg (FIG. 12A) and for ovarian cancer bearing mice (TOV112D) treated for 7 days with 200, 300, or 400 mg/kg of oral COH29 (FIG. 12B) (shown are the average±SDs for 4 animals/group). FIG. 12C depicts the activity of RNR in MOLT-4 tumor xenografts from mice treated with vehicle (solutol-15) or 100 mg/kg of oral COH29 for 12 days. FIG. 12D depicts the effect of oral COH29 on intratumoral dTNP pools from MOLT-4 tumor xenografts.

[1] = GLP toxicity study in dogs; assay type: in vivo; conditions: for Toxicity: Beagles, top dose 42 mg/kg
Source text: (§1) Toxicity studies in rats and dogs at doses equivalent to 10× that dose have not shown toxicity at 10 or 21 days.

[2] = GLP toxicity study in rats; assay type: in vivo; conditions: for Toxicity: Sprague-Dawley rats, top dose 125 mg/kg
Source text: as §1

[3] = test system: wild-type zebrafish embryos; assay: Zebrafish genotoxicity assay; assay type: in vivo, Danio rerio; conditions: embryos treated 1 to 7 dpf, COH29 0-100 μM
Method: The PARP1 activity was determined using the PARP1 Chemiluminescent Assay Kit (BPS Bioscience, San Diego) according to the manufacturer's protocol. Briefly, the ribosylation reaction was carried out with activated DNA in PARP assay buffer using test inhibitor, positive control, substrate control and blank reactions, for 1 hour at 25° C. Detection was by streptavidin-HRP with chemiluminescent substrate A and B read in a luminometer. NZebrafish (Danio rerio) were obtained from zebrafish Core facility of Taipei Medical University and maintained at 28° C. on a 14 h light/10 h dark cycle. Embryos were incubated at 28° C. and different developmental stages were determined as described (25). Wild-type embryos were treated with different concentrations of HU (0, 5, 10, 20, 50 mM) or COH29 (0, 10, 20, 50, 100 μM) at 20 hpf to evaluate the mutagenic effect. Fifteen embryos were treated per well condition. […] Embryos were observed using an Olympus IX70-FLA inverted fluorescence microscope. Images were taken using SPOT digital camera system (Diagnostic Instruments, Sterling Heights, Mich., USA) and assembled with Image) software (26).
To assess the genotoxicity of COH29, wild-type zebrafish embryos were treated from 1 to 7 dpf (day post-fertilization) with a range of doses of COH29 (0-100 μM) and compared to embryos similarly treated with HU (0-50 mM) which is known to cause developmental defects.

O=C(Nc1nc(-c2ccc(O)c(O)c2)c(-c2ccccc2)s1)c1ccc(O)c(O)c1 [COH29, N-(4-(3,4-dihydroxyphenyl)-5-phenylthiazol-2-yl)-3,4-dihydroxybenzamide]
PARP1 protein level (PARP1; HCC1937 BRCA1-defective, 24 h): attenuated PARP1 protein | PARP1 protein level (PARP1; HCC1937 cells irrespective of BRCA1 status, 4 h): Little reduction | tumor size vs vehicle controls (HCC1937+BRCA1 tumors): not significantly smaller | NHEJ repair efficiency (EJ5 cells (NHEJ pathway)): little effect | xenograft tumor growth (TOV112D xenograft tumors): inhibited | Toxicity ([1]; 10 days): none | Toxicity ([1]; 21 days): none | NOAEL ([1]; beagle, dog, in vivo): 84 mg/kg/day | Toxicity ([2]; 10 days): none | Toxicity ([2]; 21 days): none | NOAEL ([2]; Sprague-Dawley, rat, in vivo): 250 mg/kg/day | viability of embryos [3]: no developmental defects (FIG. 5C) or decrease in viability | developmental defects ([3]; HU 0-50 mM): no developmental defects
